Data on six compounds can be found in publication PMC10536004, “Gallation and B-Ring Dihydroxylation Increase Green Tea Catechin Residence Time in Plasma by Differentially Affecting Tissue-Specific Trafficking: Compartmental Model of Catechin Kinetics in Healthy Adults” (Nutrients, 2023).

Read-outs that look alike come from different tables or passages of the source.

The test system of series [1] is nonalcoholic steatohepatitis. Set-up: method as in PMID 32688217. The settings on record: obese mice, equal doses in diet; cited from earlier work.
The nature of series [2]: Compartmental model of catechin kinetics from plasma and urine pharmacokinetic data after ingestion of GTE confection. In kind it is in vivo, healthy adults. The source says: Data for the present study were obtained from our prior investigation of the pharmacokinetics of green tea polyphenols in healthy adults. The study protocol was approved by the Biomedical Institutional Review Board at Ohio State University (#2017H0246) and registered at ClinicalTrials.gov (NCT03413735). In brief, 19 healthy adults (10 males and 9 females; 27 ± 2 y; 22 ± 0 kg/m^2) who were normotensive (systolic blood pressure, 112.1 ± 2.3 mmHg and diastolic blood pressure, 72.5 ± 1.6 mmHg) normoglycemic (fasting glucose, 92.3 ± 1.8 mg/dL) and normolipidemic (total cholesterol, 181.1 ± 7.8 mg/dL and triglyceride 61.7 ± 7.5 mg/dL) completed the study in the Columbus, Ohio area. Participants were non-smokers, non-users of dietary supplements, non-regular tea drinkers (<2 cups/wk), consumed <3 alcoholic drinks/d, non-pregnant or non-lactating, not using any medications or antibiotics, and had no history of gastrointestinal disorders or surgeries.
Complete details of the pharmacokinetic study were reported in [24]. In brief, participants abstained from polyphenol-rich foods for 3 d. In the fasting state (10–12 h) on day 4, participants voided their bladder, and a catheter was inserted into the antecubital vein to collect blood samples at baseline (0 h) and at 0.25, 0.5, 1, 2, 3, 5, 8, 10, and 12 h post-ingestion of a confection formulated with catechin-rich GTE. Urine was collected in timed intervals from 0–4, 4–8, 8–12, and 12–24 h (Figure 2). Participants received standardized meals at 4 h (11:00), 6 h (13:00) and 12 h (19:00) following confection ingestion. Snacks (e.g., pretzels, crackers) were also provided between 13:00–19:00. All foods were devoid of polyphenols and provided to participants in a eucaloric manner based on estimated energy requirements using the Harris–Benedict formula [25]. Controlled meals were designed to provide 48–55% of energy from carbohydrates, 15–20% from proteins, and 20–35% from fats. No additional foods or beverages, except water, were consumed by participants during the 24 h trial period.
GTE confections were developed as an alternative delivery system for catechins because Americans prefer catechin-deplete black tea over catechin-rich green tea. Confections were prepared in-house and formulated with 84.5% water, 2% sucrose, 6% gelatin, 0.5% citric acid, 6% lime-flavored gelatin, and 1% decaffeinated GTE powder. Confections were prepared within 24 h of the participants’ pharmacokinetics trial and stored at 4 °C. Each participant ingested 2 confections (each 25 g and ~2.5″ cubed), which contained 0.5 g GTE (Sunphenon 90 LB, Taiyo International, Inc., Minneapolis, MN, USA) to provide 445 mg total catechins (290 mg EGCG, 87 mg EGC, 39 mg EC, 28 mg ECG). The catechin content of all confections was confirmed by HPLC analysis. Based on brewed green tea (250 mL prepared with 2.2 g of dry tea leaves) containing ~180 mg total catechins, GTE at 0.5 g approximates 2.5 cups of green tea.
Biospecimen handling and preservation of catechins concentrations in plasma and urine were described. In brief, venous plasma was collected in heparinized tubes, while urine was collected in sterilized containers. Samples were preserved by adding a solution of acetic acid, ascorbic acid, and EDTA, snap-frozen in liquid nitrogen and stored at −80 °C until analyzed. Plasma and urinary catechins (EGCG, EGC, ECG, EC) were analyzed by LC-MS following enzymatic hydrolysis and extraction as reported.
Tissue-specific kinetics of each catechin were determined by model-based compartmental analysis using the Windows version of Simulation, Analysis, and Modeling software (WinSAAM version 3.0.8). The observed data were expressed as a fraction of the ingested dose, i.e., the mass of catechins measured in plasma/urine at specified times divided by the mass of the ingested catechin dose. […]

For series [3] the following is noted: in vivo; cited from earlier work.
The subject of the next series is Caco-2 monolayer. The settings on record: cited from earlier work.
The subject of a further series is pancreatic tumor cells. The settings on record: cited from earlier work.
The conditions of series [4]: in vitro; cited from earlier work.
The conditions of series [5]: alkaline pH; cited from earlier work.
The mark [6] stands for this setting: 0.5 g GTE confection, n = 19, two-way ANOVA with Tukey's post-hoc.
[7] abbreviates: fractional catabolic rate from plasma, not statistically significant.

With `Oc1cc(O)c2c(c1)OC(c1ccc(O)c(O)c1)C(O)C2` (single isomer, unassigned; (+)) [catechin, (+)-catechin], the “alleviating pathological evidence of nonalcoholic steatohepatitis” value in series [1] is on record as “effective”.
Consider `Oc1cc(O)c2c(c1)O[C@H](c1ccc(O)c(O)c1)[C@H](O)C2` [EC, epicatechin], for which, in series [2] (setting [6]), the “fractional catabolic rate (FCR), fraction of compound lost irreversibly from plasma per min, rank order” value (shortened to “fractional catabolic rate … per min, rank order”) is “EGC > EGCG = EC > ECG” and the “plasma residence time, rank order” value is listed as “ECG > EC = EGCG > EGC”. Further, the “mean FCR higher in females compared with males” value in series [2] (setting [7]) amounted to 9%. In addition, in series [2] (n = 19), the “fractional transfer rate from plasma to extravascular tissues, rank order” value is listed as “EGC > EGCG > EC > ECG”; the “fractional transfer rate from plasma to kidneys, rank order” value is reported as “EGC = EC > EGCG = ECG”; the “fractional transfer rate from the liver to plasma, rank order” value (“fractional transfer rate from the liver” below) is given as “EGC > EC > EGCG = ECG”. Moreover, the “fraction present in human plasma following oral administration of green tea” value (“fraction present” below) in series [3] is on record as 1.1%. Moreover, the “basal-to-apical transport of catechins, rank order” value (from here on “basal-to-apical transport”) with Caco-2 monolayer (Caco-2 cell model) was “EC > EGC > ECG ≈ EGCG”.
Take `O=C(O[C@@H]1Cc2c(O)cc(O)cc2O[C@@H]1c1ccc(O)c(O)c1)c1cc(O)c(O)c(O)c1` [ECG, epicatechin gallate]: the “anti-inflammatory activity compared with EGCG” value with pancreatic tumor cells is listed as “superior”. In series [2] (setting [6]), the “fractional catabolic rate … per min, rank order” value is recorded as “EGC > EGCG = EC > ECG” and the “plasma residence time, rank order” value is recorded as “ECG > EC = EGCG > EGC”. Also, the “fractional transfer from the small intestine to the liver” value in series [2] (ECG compared with EC) is “slower”. In series [2] (ECG vs. EC), the “fractional transfer from kidneys to urine” value was “slower”. Further, the “fractional transfer rate from the upper gastrointestinal tract to the small intestine” value in series [2] (compared with other catechins) is on record as “faster”. Moreover, in series [2] (setting [7]), the “mean FCR higher in females compared with males” value turned out to be 5%. In series [2] (n = 19), the “fractional transfer rate from plasma to extravascular tissues, rank order” value is on record as “EGC > EGCG > EC > ECG”; the “fractional transfer rate from plasma to kidneys, rank order” value is “EGC = EC > EGCG = ECG”; the “fractional transfer rate from the liver” value is “EGC > EC > EGCG = ECG”. In addition, the “basal-to-apical transport” value in the series with Caco-2 monolayer (Caco-2 cell model) is recorded as “EC > EGC > ECG ≈ EGCG”.
In the case of `Oc1cc(O)c2c(c1)O[C@H](c1cc(O)c(O)c(O)c1)[C@H](O)C2` [EGC, epigallocatechin], the “mean FCR higher in females compared with males” value in series [2] (both, human, in vivo) turned out to be 13%. Further, in series [2] (in vivo), the “fractional catabolic rate … per min, rank order” value was “EGC > EGCG = EC > ECG”; the “fractional transfer rate from plasma to extravascular tissues, rank order” value is “EGC > EGCG > EC > ECG”; the “fractional transfer rate from plasma to kidneys, rank order” value was “EGC = EC > EGCG = ECG”; the “fractional transfer rate from the liver” value is on record as “EGC > EC > EGCG = ECG”. Further, the “plasma residence time, rank order” value in series [2] (in vivo) is “ECG > EC = EGCG > EGC”. Moreover, the “fraction present” value in series [3] was 0.58%. Further, the “basal-to-apical transport” value in the series on Caco-2 monolayer is given as “EC > EGC > ECG ≈ EGCG”.
For the compound `O=C(O[C@@H]1Cc2c(O)cc(O)cc2O[C@@H]1c1cc(O)c(O)c(O)c1)c1cc(O)c(O)c(O)c1` [EGCG, epigallocatechin gallate], the “alleviating pathological evidence of nonalcoholic steatohepatitis” value in series [1] was “more potent”. For the same compound, in series [2] (setting [6]), the “fractional catabolic rate … per min, rank order” value is reported as “EGC > EGCG = EC > ECG” and the “plasma residence time, rank order” value is on record as “ECG > EC = EGCG > EGC”. Further, the “mean FCR higher in females compared with males” value in series [2] (setting [7]) was 33%. Also, in series [2] (n = 19), the “fractional transfer rate from plasma to extravascular tissues, rank order” value is given as “EGC > EGCG > EC > ECG”; the “fractional transfer rate from plasma to kidneys, rank order” value is listed as “EGC = EC > EGCG = ECG”; the “fractional transfer rate from the liver” value was “EGC > EC > EGCG = ECG”. In addition, the “fraction present” value in series [3] is given as 0.16%. For the same compound, in series [4], the “free radical scavenging activity” value is “superior”. For the same compound, in the series on Caco-2 monolayer (Caco-2 cell model), the “basal-to-apical transport” value is on record as “EC > EGC > ECG ≈ EGCG”. In addition, the “loss by degradation in alkaline environment of the small intestine compared with ECG and EC” value in series [5] is “greater loss”.
Take catechin gallate [reference compound]: the “anti-inflammatory activity compared with EGCG” value in the series with pancreatic tumor cells is given as “superior”.
